# Source: patent US20160339005A1, “COMPOSITIONS AND METHODS FOR TREATING OCULAR DISEASES” (AKEBIA THERAPEUTICS, INC., priority 2014, published 2016)
# “Also recorded” adds a separate entry of the source.
# System: choroidal neovascularization (CNV)
# Assay: Rodent model of surgically (laser) induced CNV, intravitreal injection, fluorescein angiography lesion areas
# Assay type: in vivo, Brown Norway rats
# Design: Mean of lesion areas, Left Eye (OS) / Mean of lesion areas, Both Eyes (OU): unit not given here
# Conditions: for fluorescein leakage in fluorescein angiography images: sample animal
# Description: In one example, twenty-four (24) naïve, male Brown Norway rats, 225-250 g at study start, are acclimated for a minimum of 5 days prior to dosing. Animals are weighed prior to dosing and at euthanasia. All animals undergo pre-screening ophthalmic examinations prior to study start as follows:
# CNV is then induced via laser treatment (e.g. laser photocoagulation (20-100-μm spot size; 0.05-0.1 seconds duration; 50 to 200 mW) at six positions of the posterior pole in each eye) by a board certified veterinary ophthalmologist. Only animals in which the laser produces a bubble indicating rupture of Bruch's membrane, are included in the study. The compound is administered in suitable form of a Test Article. Test and Control Article treatment begin 3 days post laser induction. In another experiment, the Test and Control Article treatments begin prior to or immediately post induction, in yet other experiments, Test and Control Article treatments begin 10 days post induction. Study duration is 3 weeks, with the option to extend on a weekly basis based on extent of healing. Animals have clinical ophthalmic examinations and fluorescein angiography approximately 3 days post-induction (prior to Test Article treatment) to confirm disease state. The route of administration for Test Article(s) and vehicle control is intravitreal (IVT) injection on Day 1, which is approximately 3-4 days post-induction, once the CNV disease state has been confirmed.
# In the first experiment, a low dose (5 μL at 3.7 mg/mL) and a high dose (5 μL at 7.8 mg/mL) of the compound are evaluated against vehicle control. The three treatment groups are (N=8 per group, 24 animals total):
# A. Test Article—Low Dose (19 μg/eye)
# B. Test Article—High Dose (39 μg/eye)
# Daily gross ocular observations and general health observations are performed. Additional exams, performed weekly up to 3 weeks post Test Article dosing, include clinical ophthalmic exams, slit-lamp biomicroscopy, indirect ophthalmoscopy, and fluorescein staining if needed. Ocular findings are scored using the McDonald-Shadduck scoring system.
# Fluorescein angiography (e.g. using Heidelberg SPECTRALIS® instrumentation) is performed to determine the degree of neovascularization (NV) in the retina and/or choroid. After fluorescein angiography, tissues are then harvested for possible future analysis (e.g. eyes are fixed in Davidson's solution and then transferred to 70% ethanol). Alternatively, the area of retinal and/or choroidal NV can be determined in various other ways. In one example, prior to sacrifice, the rodents are perfused with PBS containing 50 mg/mL of fluorescein-labeled dextran (2×10^6 Da average molecular mass). Alternatively, fluorescein-labeled Lycopersicon esculentum (tomato) lectin can be used. The choroids are then flat mounted and examined by fluorescence microscopy. A standard image analysis software is then used to measure the total area of retinal/choroidal NV with the investigator masked with respect to treatment group.
# Results from an initial experiment treating animals with a control vehicle, low dose (19 μg/eye), or high dose (39 μg/eye) of Compound 7 are shown in FIGS. 1-6.
# Animals were dosed on Day 3. […] The surrounding regions around the laser burn continued to show a higher fluorescence from Days 3-14. Day 9 intensities were attenuated due to the presence of fluorescein in both the anterior and posterior chambers of the eye.
# FIGS. 4-6 and Tables 1-3 below show Mean (±SEM) of lesion areas in the right, left and both eyes, respectively.
# [1] = High Dose (39 μg/eye, 5 μL at 7.8 mg/mL) IVT, Day 3 (prior to dosing)
# [2] = High Dose (39 μg/eye, 5 μL at 7.8 mg/mL) IVT, Day 9
# [3] = High Dose (39 μg/eye, 5 μL at 7.8 mg/mL) IVT, Day 14
# [4] = High dose (39 μg/eye) IVT, Day 3 (baseline)
# [5] = High dose (39 μg/eye) IVT, Day 9
# [6] = High dose (39 μg/eye) IVT, Day 14
# [7] = Low Dose (19 μg/eye, 5 μL at 3.7 mg/mL) IVT, Day 3 (prior to dosing)
# [8] = Low Dose (19 μg/eye, 5 μL at 3.7 mg/mL) IVT, Day 9
# [9] = Low Dose (19 μg/eye, 5 μL at 3.7 mg/mL) IVT, Day 14
# [10] = Low dose (19 μg/eye) IVT, Day 3 (baseline)
# [11] = Low dose (19 μg/eye) IVT, Day 9
# [12] = Low dose (19 μg/eye) IVT, Day 14
smiles,measurement,setting,value
"O=C(O)CNC(=O)c1ncc(-c2cccc(F)c2)cc1O [Compound 7, {[5-(3-fluorophenyl)-3-hydroxypyridine-2-carbonyl]amino} acetic acid]","Mean of lesion areas, Both Eyes (OU)",[1],4.21
same,"Mean of lesion areas, Left Eye (OS)",[1],3.86
same,"Mean of lesion areas, Right Eye (OD)",[1],4.56
same,"Mean of lesion areas, Both Eyes (OU)",[2],1.71
same,"Mean of lesion areas, Left Eye (OS)",[2],1.68
same,"Mean of lesion areas, Right Eye (OD)",[2],1.75
same,"Mean of lesion areas, Both Eyes (OU)",[3],0.71
same,"Mean of lesion areas, Left Eye (OS)",[3],0.84
same,"Mean of lesion areas, Right Eye (OD)",[3],0.58
same,"percentage area reduction of lesion areas, Both Eyes",[4],0.00%
same,"percentage area reduction of lesion areas, Left Eye",[4],0.00%
same,"percentage area reduction of lesion areas, Right Eye",[4],0.00%
same,"percentage area reduction of lesion areas, Both Eyes",[5],−53.83%
same,"percentage area reduction of lesion areas, Left Eye",[5],−46.66%
same,"percentage area reduction of lesion areas, Right Eye",[5],−61.00%
same,"percentage area reduction of lesion areas, Both Eyes",[6],−83.63%
same,"percentage area reduction of lesion areas, Left Eye",[6],−79.77%
same,"percentage area reduction of lesion areas, Right Eye",[6],−87.49%
same,"Mean of lesion areas, Both Eyes (OU)",[7],3.74
same,"Mean of lesion areas, Left Eye (OS)",[7],3.48
same,"Mean of lesion areas, Right Eye (OD)",[7],4.01
same,"Mean of lesion areas, Both Eyes (OU)",[8],1.84
same,"Mean of lesion areas, Left Eye (OS)",[8],1.81
same,"Mean of lesion areas, Right Eye (OD)",[8],1.88
same,"Mean of lesion areas, Both Eyes (OU)",[9],0.96
same,"Mean of lesion areas, Left Eye (OS)",[9],1.02
same,"Mean of lesion areas, Right Eye (OD)",[9],0.90
same,"percentage area reduction of lesion areas, Both Eyes",[10],0.00%
same,"percentage area reduction of lesion areas, Left Eye",[10],0.00%
same,"percentage area reduction of lesion areas, Right Eye",[10],0.00%
same,"percentage area reduction of lesion areas, Both Eyes",[11],−48.43%
same,"percentage area reduction of lesion areas, Left Eye",[11],−44.39%
same,"percentage area reduction of lesion areas, Right Eye",[11],−52.47%
same,"percentage area reduction of lesion areas, Both Eyes",[12],−73.63%
same,"percentage area reduction of lesion areas, Left Eye",[12],−68.00%
same,"percentage area reduction of lesion areas, Right Eye",[12],−79.25%
same,vascular leakage in the ocular vasculature compared with vehicle control (lesion areas over time),"low dose and high dose, FIGS. 4-6 (OD, OS, OU)",reduction of vascular leakage
same,overall fluorescence and leakage compared to animals treated with vehicle control,low or high doses (19 or 39 μg/eye) IVT,reduced overall fluorescence and leakage
same,fluorescein leakage in fluorescein angiography images,"high dose (5 μL at 7.8 mg/mL), Day 9",Lower fluorescence leakage
same,fluorescein leakage in fluorescein angiography images,"high dose (5 μL at 7.8 mg/mL), Day 14",no fluorescein leakage was observed; also recorded: no fluorescence leakage
same,fluorescein leakage in fluorescein angiography images,"low dose (5 μL at 3.7 mg/mL), Day 9",Lower fluorescence leakage
same,fluorescein leakage in fluorescein angiography images,"low dose (5 μL at 3.7 mg/mL), Day 14",almost subsided completely; also recorded: minimal fluorescence leakage
